From US9598424B2 (Takeda Pharmaceutical Company Limited, priority 2014, dated 2017) come the findings set out here.

The target in assay [1] is T1, Full length human TBK1 (Homo sapiens, UniProt Q9UHD2).
T1 construct: Full length human TBK1 with an N-terminal His-tag; His-tag (N); made in house; host or cells: Sf9 insect cells (baculovirus, pFastBac1)
T1 sequence (Q9UHD2 1-729): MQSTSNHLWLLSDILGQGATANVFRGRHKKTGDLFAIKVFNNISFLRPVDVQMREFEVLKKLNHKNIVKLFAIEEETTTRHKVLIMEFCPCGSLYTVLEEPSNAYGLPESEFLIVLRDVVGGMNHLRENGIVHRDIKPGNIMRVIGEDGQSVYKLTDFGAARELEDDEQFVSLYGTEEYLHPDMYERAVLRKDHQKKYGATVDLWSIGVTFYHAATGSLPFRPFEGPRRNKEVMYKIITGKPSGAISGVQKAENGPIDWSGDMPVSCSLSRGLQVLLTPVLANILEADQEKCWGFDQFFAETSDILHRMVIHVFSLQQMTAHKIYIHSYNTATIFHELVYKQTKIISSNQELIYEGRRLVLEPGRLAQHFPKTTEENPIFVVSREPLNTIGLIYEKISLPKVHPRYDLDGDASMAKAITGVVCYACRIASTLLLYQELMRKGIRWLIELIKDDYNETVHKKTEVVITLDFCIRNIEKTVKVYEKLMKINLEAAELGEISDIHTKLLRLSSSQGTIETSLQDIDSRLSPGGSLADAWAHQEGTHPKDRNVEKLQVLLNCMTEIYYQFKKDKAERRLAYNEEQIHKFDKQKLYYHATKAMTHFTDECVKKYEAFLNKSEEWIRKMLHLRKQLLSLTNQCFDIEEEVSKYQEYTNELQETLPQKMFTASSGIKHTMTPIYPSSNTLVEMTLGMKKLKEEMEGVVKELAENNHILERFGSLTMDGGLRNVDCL
As to the kind of experiment: Inhibition of TBK1 Enzyme (Caliper microfluidic assay). The note with it: 25 μM ATP, 60 min at RT; -log(IC50), IC50 molar; read-out: TBK1 Inhibition (pIC50) (converted). Type of assay: biochemical. Here is the method:
Full length human TBK1 with an N-terminal His-tag was cloned into the pFastBacl vector and was transfected into Sf9 cells. 72 hours later the virus was harvested and amplified through two additional rounds of infections. Then 400 ml of the resulting virus stock was used to infect 10L of Sf9 cells at a density of 2×10^6 cells/ml. Cell pellets were harvested 48 hours post infection and were lysed by freeze-thaw, homogenization and sonication in binding buffer (25 mM Tris pH7.6, 1 M NaCl, 10 mM imidazole, 0.5 mM TCEP) plus 0.1% Triton X-100 and complete protease inhibitor cocktail. The lysate was spun and the supernatant was purified with a HisTrap FF crude and a Superdex 200 pg column.
TBK1 inhibition is determined using a 384 well plate format in buffer containing 20 mM Hepes, pH 7.4, 10 mM MgCl2, 1 mM EDTA, 0.01% Brij-L23, 1 mM DTT. Each test compound is prepared in DMSO using 2.5-fold serial dilutions for 11 data points, which are added to the buffer so that each dilution contains 1% DMSO. To each well is added 2 μL of 1 μm 5FAM-DRHDSGLDSMKDE-NH2 (in buffer), 2 μL of diluted test compound (1% DMSO in buffer), and 5 μL of 3 nM TBK1 and 25 μM ATP (in buffer). The reaction mixture is incubated at RT for 60 min, and quenched by adding 20 mM Hepes, pH 7.4, 10 mM MgCl2, 1 mM EDTA, 0.01% Brij-L23, 1 mM DTT+25 mM EDTA. To quantify the fluorescent-labeled substrate and product following reaction, the test plate is loaded on a Caliper LC-3000, which measures percent of conversion by microfluidic-based separation. Corresponding IC50 values are calculated by non-linear curve fitting of the compound concentrations and percent of inhibition to the standard IC50 equation and reported as pIC50, i.e., −log(IC50), where IC50 is the molar concentration.

In assay [2] the target is T2, TBK1 (Homo sapiens, UniProt Q9UHD2).
T2 construct: host or cells: RA1-ISRE beta-lactamase reporter cells
T2 sequence (Q9UHD2 1-729): T1 sequence (Q9UHD2 1-729)
As to the kind of experiment: Inhibition of TBK1 in Cells (TLR3 driven ISRE β-lactamase reporter assay). The format is cell-based. The note with it: poly IC-LMW stimulation 16 hrs; -log(EC50), EC50 molar; read-out: Inhibition of TBK1 in cells pEC50 (EC) (converted). The method, then:
TBK1 inhibition is determined using a TLR3 driven RA1-ISRE β-lacatamase reporter assay (Life Technologies). In the assay 50,000 cells/well are plated in black clear bottom 384 well plate. Each test compound is prepared in DMSO using 2.5-fold serial dilutions for 11 data points, which are then added to the media. Cells are stimulated with 0.15 mg/ml poly IC-LMW (Invivogen) for 16 hrs. Reporter activity is detected using the LiveBLAzer-FRET B/G CCF4-AM substrate (Life Technologies) and the plate is read using the Spectramax M5 instrument. Corresponding EC50 values are calculated by non-linear curve fitting of the compound concentrations and percent of inhibition to the standard EC50 equation and reported as pEC50, i.e., −log(EC50), where EC50 is the molar concentration.

The structures appear in SMILES notation.

Regarding `COCCN(CC(F)(F)F)C(=O)c1cc(-c2ccc3nc(NC(=O)C4CC4)cn3c2)cs1` [Example 83, 4-(2-(cyclopropanecarboxamido)imidazo[1,2-a]pyridin-6-yl)-N-(2-methoxyethyl)-N-(2,2,2-trifluoroethyl)thiophene-2-carboxamide], the IC50 in assay [1] is 0.02 µM. Further, the EC50 in assay [2] is 0.646 µM. Regarding `Cc1sc(C(=O)NCC(F)(F)F)nc1-c1ccc2nc(NC(=O)C3CC3)cn2n1` [Example 20, 4-(2-(cyclopropanecarboxamido)imidazo[1,2-b]pyridazin-6-yl)-5-methyl-N-(2,2,2-trifluoroethyl)thiazole-2-carboxamide], in assay [1], the IC50 was 0.501 µM.

With `N#CC1CN(C(=O)c2nc(-c3ccc4nc(NC(=O)C5CC5)cn4c3)cs2)C1` [Example 102, N-(6-(2-(3-cyanoazetidine-1-carbonyl)thiazol-4-yl)imidazo[1,2-a]pyridin-2-yl)cyclopropanecarboxamide], in assay [1], the IC50 was 0.2 µM. For the same molecule, the EC50 in assay [2] was 0.776 µM.

On to `O=C(NCC(F)F)c1nc(-c2ccc3nc(NC(=O)C4CC4)cn3c2)c[nH]1` [Example 12, 4-{2-cyclopropaneamidoimidazo[1,2-a]pyridin-6-yl}-N-(2,2-difluoroethyl)-1H-imidazole-2-carboxamide], for which, in assay [1], the IC50 is 0.02 µM. Also, the EC50 in assay [2] was 0.955 µM. Consider `CC(C)CNC(=O)c1cc(-c2ccc3nc(NC(=O)C4CC4)cn3c2)cs1` [Example 63, 4-(2-(cyclopropanecarboxamido)imidazo[1,2-a]pyridin-6-yl)-N-isobutylthiophene-2-carboxamide], for which the IC50 in assay [1] is 0.0158 µM. Moreover, the EC50 in assay [2] is 0.372 µM.

In the case of `O=C(Nc1cn2cc(-c3csc(C(=O)N4CCCC4C(F)(F)F)c3)ccc2n1)C1CC1` (stereo not shown) [Example 60, N-(6-(5-(2-(trifluoromethyl)pyrrolidine-1-carbonyl)thiophen-3-yl)imidazo[1,2-a]pyridin-2-yl)cyclopropanecarboxamide], in assay [1], the IC50 was 0.0158 µM. The EC50 in assay [2] was 0.234 µM. For `O=C(NCC(F)(F)F)c1ccn(-c2ccc3nc(NC(=O)C4CC4)cn3n2)n1` [Example 39, 1-(2-(cyclopropanecarboxamido)imidazo[1,2-b]pyridazin-6-yl)-N-(2,2,2-trifluoroethyl)-1H-pyrazole-3-carboxamide], the IC50 in assay [1] was 0.251 µM. Also, in assay [2], the EC50 is > 50.1 µM.

Turning to `CC(NC(=O)c1nc(-c2ccc3nc(NC(=O)C4CC4)cn3c2)c[nH]1)C(F)(F)F` (stereo not shown) [Example 24, 4-(2-(cyclopropanecarboxamido)imidazo[1,2-a]pyridin-6-yl)-N-(1,1,1-trifluoropropan-2-yl)-1H-imidazole-2-carboxamide], the IC50 in assay [1] was 0.0251 µM. Further, the EC50 in assay [2] was 0.468 µM. With `O=C(NCC(F)(F)F)c1ccn(-c2ccc3nc(NC(=O)C4CC4)cn3c2)n1` [Example 34, 1-(2-(cyclopropanecarboxamido)imidazo[1,2-a]pyridin-6-yl)-N-(2,2,2-trifluoroethyl)-1H-pyrazole-3-carboxamide], in assay [1], the IC50 was 0.02 µM. Besides, the EC50 in assay [2] was 0.513 µM. Consider `O=C(NCC(F)F)c1cc(-c2ccc3nc(NC(=O)C4CC4)cn3n2)cs1` [Example 18, 4-(2-(cyclopropanecarboxamido)imidazo[1,2-b]pyridazin-6-yl)-N-(2,2-difluoroethyl)thiophene-2-carboxamide], for which, in assay [1], the IC50 was 0.01 µM. For the same molecule, the EC50 in assay [2] is 0.251 µM.

`Cc1sc(C(=O)NCC(F)(F)F)cc1-c1ccc2nc(NC(=O)C3CC3)cn2n1` [Example 23, 4-(2-(cyclopropanecarboxamido)imidazo[1,2-b]pyridazin-6-yl)-5-methyl-N-(2,2,2-trifluoroethyl)thiophene-2-carboxamide]: the IC50 in assay [1] was 0.0794 µM. Further, the EC50 in assay [2] was 5.37 µM. As to `COC1CCN(C(=O)c2cc(-c3ccc4nc(NC(=O)C5CC5)cn4c3)cs2)CC1` [Example 58, N-(6-(5-(4-methoxypiperidine-1-carbonyl)thiophen-3-yl)imidazo[1,2-a]pyridin-2-yl)cyclopropanecarboxamide], the IC50 in assay [1] is 0.794 µM. Take `NC(=O)[C@@H]1CC(F)(F)CN1C(=O)c1cc(-c2ccc3nc(NC(=O)C4CC4)cn3c2)cs1` [Example 82, (S)-1-(4-(2-(cyclopropanecarboxamido)imidazo[1,2-a]pyridin-6-yl)thiophene-2-carbonyl)-4,4-difluoropyrrolidine-2-carboxamide]: in assay [1], the IC50 was 0.631 µM. Consider `O=C(Nc1cn2cc(-c3csc(C(=O)N4CCC(CO)C4)n3)ccc2n1)C1CC1` (stereo not shown) [Example 100, N-(6-(2-(3-(hydroxymethyl)pyrrolidine-1-carbonyl)thiazol-4-yl)imidazo[1,2-a]pyridin-2-yl)cyclopropanecarboxamide], for which, in assay [1], the IC50 was 0.2 µM. Regarding `O=C(NCC(F)(F)F)c1cn(-c2ccc3nc(NC(=O)C4CC4)cn3c2)cn1` [Example 41, 1-(2-(cyclopropanecarboxamido)imidazo[1,2-a]pyridin-6-yl)-N-(2,2,2-trifluoroethyl)-1H-imidazole-4-carboxamide], in assay [1], the IC50 was 0.0631 µM. Same read-out and setting: the result for `O=C(NCCO)c1nc(-c2ccc3nc(NC(=O)C4CC4)cn3c2)cs1` [Example 95, 4-(2-(cyclopropanecarboxamido)imidazo[1,2-a]pyridin-6-yl)-N-(2-hydroxyethyl)thiazole-2-carboxamide] reads 0.398 µM; that for `O=C(NCC(F)(F)F)c1ncc(-c2ccc3nc(NC(=O)C4CC4)cn3c2)s1` [Example 22, 5-(2-(cyclopropanecarboxamido)imidazo[1,2-a]pyridin-6-yl)-N-(2,2,2-trifluoroethyl)thiazole-2-carboxamide], 0.2 µM. Still for that read-out and setting: the value for `O=C1CC(NC(=O)c2nc(-c3ccc4nc(NC(=O)C5CC5)cn4c3)cs2)CN1` (stereo not shown) [Example 99, 4-(2-(cyclopropanecarboxamido)imidazo[1,2-a]pyridin-6-yl)-N-(5-oxopyrrolidin-3-yl)thiazole-2-carboxamide] was 0.251 µM; that for `Cc1sc(C(=O)NCC(F)(F)F)nc1-c1ccc2nc(NC(=O)C3CC3)cn2c1` [Example 31, 4-(2-(cyclopropanecarboxamido)imidazo[1,2-a]pyridin-6-yl)-5-methyl-N-(2,2,2-trifluoroethyl)thiazole-2-carboxamide] was 0.398 µM. As to `COC1CN(C(=O)c2nc(-c3ccc4nc(NC(=O)C5CC5)cn4c3)cs2)C1` [Example 101, N-(6-(2-(3-methoxyazetidine-1-carbonyl)thiazol-4-yl)imidazo[1,2-a]pyridin-2-yl)cyclopropanecarboxamide], the IC50 in assay [1] is 0.631 µM. In the case of `O=C(NCC(F)F)c1ccn(-c2ccc3nc(NC(=O)C4CC4)cn3n2)n1` [Example 37, 1-(2-(cyclopropanecarboxamido)imidazo[1,2-b]pyridazin-6-yl)-N-(2,2-difluoroethyl)-1H-pyrazole-3-carboxamide], in assay [1], the IC50 is 0.794 µM.
